According to patent US7226923B2, “Phthalazinone derivatives” (Hoffman-La Roche Inc., priority 2004, dated 2007):

Legend:
Aurora A = target: T1, Aurora A (Homo sapiens, UniProt O14965); assay: IC50 determination for inhibitors of Aurora A (96 MTP-ELISA); type: biochemical; conditions: His4-tagged full-length Aurora A 250 ng/ml, PKB-GSK2 200 nM, ATP 4 μM, 90 min at room temperature, read-out: IC50 Aurora A kinase inhibition
T1 construct: C-terminally Histidine4 (His4)-tagged Aurora A full-length protein
T1 sequence (O14965 1-403): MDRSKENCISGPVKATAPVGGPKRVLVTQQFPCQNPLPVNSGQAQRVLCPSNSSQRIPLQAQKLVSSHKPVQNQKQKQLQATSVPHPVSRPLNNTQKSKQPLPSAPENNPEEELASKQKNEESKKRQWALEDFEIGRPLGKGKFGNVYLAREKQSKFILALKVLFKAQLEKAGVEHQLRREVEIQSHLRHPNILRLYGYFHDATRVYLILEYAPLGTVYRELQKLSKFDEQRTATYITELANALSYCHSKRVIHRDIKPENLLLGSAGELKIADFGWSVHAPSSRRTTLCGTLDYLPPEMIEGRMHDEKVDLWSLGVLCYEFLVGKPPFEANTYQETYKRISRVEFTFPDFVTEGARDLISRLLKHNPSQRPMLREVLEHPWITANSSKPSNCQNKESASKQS

HCT 116 cells = assay: CellTiter-Glo assay in HCT 116 cells; type: cell-based, human; conditions: Homo sapiens, HCT-116, 120 h, 5 days incubation, 30 μM to 0.0015 μM
Procedure, shortened: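 Cells seeded at 1000/well in RPMI 1640 with 5% FCS, grown 24 h at 37 °C, then treated with 10 concentrations from 30 μM to 0.0015 μM (1:3 dilutions). After 5 days viability was read as ATP-based luminescence (CellTiter-Glo) following 30 min room-temperature equilibration and lysis.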

Row | SMILES | IC50 (Aurora A) | IC50 (HCT 116 cells)
1 | Cc1cc(Nc2nn(C(C)C)c(=O)c3cc(OCc4ccncc4)ccc23)n[nH]1 [Example G-4, 2-Isopropyl-4-(5-methyl-1H-pyrazol-3-ylamino)-7-(pyridin-4-ylmethoxy)-2H-phthalazin-1-one] | 1 to 100 nM | 100 to 10000 nM
2 | Cc1cc(Nc2nn(CC(=O)c3ccc4c(c3)OCO4)c(=O)c3ccccc23)n[nH]1 [Example E-7, 2-(2-Benzo[1,3]dioxol-5-yl-2-oxo-ethyl)-4-(5-methyl-1H-pyrazol-3-ylamino)-2H-phthalazin-1-one] | 100 to 1000 nM | 100 to 10000 nM
3 | COc1cccc(Cn2nc(Nc3cc(C)[nH]n3)c3ccccc3c2=O)c1 [Example A-12, 2-(3-Methoxy-benzyl)-4-(5-methyl-1H-pyrazol-3-ylamino)-2H-phthalazin-1-one] | 1 to 100 nM | 100 to 10000 nM
4 | Cc1cc(Nc2nn(C(C)C)c(=O)c3cc(N(C)CCN4CCOCC4)ccc23)n[nH]1 [Example I-1, 2-Isopropyl-7-[methyl-(2-morpholin-4-yl-ethyl)-amino]-4-(5-methyl-1H-pyrazol-3-ylamino)-2H-phthalazin-1-one] | 1 to 100 nM | 100 to 10000 nM
5 | Cc1cc(Nc2nn(C(C)C)c(=O)c3cc(N(C)Cc4cccnc4)ccc23)n[nH]1 [Example I-3, 2-Isopropyl-4-(5-methyl-1H-pyrazol-3-ylamino)-7-(methyl-pyridin-3-ylmethyl-amino)-2H-phthalazin-1-one] | 1 to 100 nM | 100 to 10000 nM
6 | Cc1cc(Nc2nn(-c3cccc(C(F)(F)F)c3)c(=O)c3ccccc23)n[nH]1 [Example R-1, 4-(5-Methyl-1H-pyrazol-3-ylamino)-2-(3-trifluoromethyl-phenyl)-2H-phthalazin-1-one] | 1 to 100 nM | 100 to 10000 nM
7 | Cc1cc(Nc2nn(C(C)C)c(=O)c3cc(OC(F)F)ccc23)n[nH]1 [Example G-7, 7-Difluoromethoxy-2-isopropyl-4-(5-methyl-1H-pyrazol-3-ylamino)-2H-phthalazin-1-one] | 1 to 100 nM | 100 to 10000 nM
8 | Cc1cc(Nc2nn(-c3ccc(C(C)(C)C)cc3)c(=O)c3cc([N+](=O)[O-])ccc23)[nH]n1 [Example ZB-3, 2-(4-tert-Butyl-phenyl)-4-(5-methyl-2H-pyrazol-3-ylamino)-7-nitro-2H-phthalazin-1-one] | 1 to 100 nM | 100 to 10000 nM
9 | Cc1cc(Nc2nn(-c3ccncc3)c(=O)c3ccccc23)n[nH]1 [Example X-1, 4-(5-Methyl-1H-pyrazol-3-ylamino)-2-pyridin-4-yl-2H-phthalazin-1-one] | 100 to 1000 nM | 100 to 10000 nM
10 | Cc1cc(Nc2nn(CC(=O)c3ccccc3)c(=O)c3ccccc23)n[nH]1 [Example E-9, 4-(5-Methyl-1H-pyrazol-3-ylamino)-2-(2-oxo-2-phenyl-ethyl)-2H-phthalazin-1-one] | 1 to 100 nM | 100 to 10000 nM
11 | Cc1cc(Nc2nn(Cc3ccc(F)cc3)c(=O)c3ccccc23)n[nH]1 [Example A-20, 2-(4-Fluoro-benzyl)-4-(5-methyl-1H-pyrazol-3-ylamino)-2H-phthalazin-1-one] | 1 to 100 nM | 100 to 10000 nM
12 | Cc1cc(Nc2nn(-c3ccc(OC(F)(F)F)cc3)c(=O)c3ccccc23)n[nH]1 [Example W-2, 4-(5-Methyl-1H-pyrazol-3-ylamino)-2-(4-trifluoromethoxy-phenyl)-2H-phthalazin-1-one] | 1 to 100 nM | 100 to 10000 nM
13 | CNC(=O)c1ccc(-n2nc(Nc3cc(C)[nH]n3)c3ccccc3c2=O)cc1 [Example S-1, N-Methyl-4-[4-(5-methyl-1H-pyrazol-3-ylamino)-1-oxo-1H-phthalazin-2-yl]-benzamide] | 100 to 1000 nM | 100 to 10000 nM
14 | Cc1cc(Nc2nn(-c3ccc([N+](=O)[O-])cc3)c(=O)c3ccccc23)n[nH]1 [Example W-3, 4-(5-Methyl-1H-pyrazol-3-ylamino)-2-(4-nitro-phenyl)-2H-phthalazin-1-one] | 1 to 100 nM | 10000 to 100000 nM
15 | Cc1cc(Nc2nn(-c3ccc(C(C)(C)C)cc3)c(=O)c3cc(NC=O)ccc23)[nH]n1 [Example ZB-1, N-[3-(4-tert-Butyl-phenyl)-1-(5-methyl-2H-pyrazol-3-ylamino)-4-oxo-3,4-dihydro-phthalazin-6-yl]-formamide] | 1 to 100 nM | 100 to 10000 nM
16 | CCN(CC)C(=O)c1ccc2c(Nc3cc(C)[nH]n3)nn(C(C)C)c(=O)c2c1 [Example M-3, 3-Isopropyl-1-(5-methyl-1H-pyrazol-3-ylamino)-4-oxo-3,4-dihydro-phthalazine-6-carboxylic acid diethylamide] | 1 to 100 nM | 100 to 10000 nM

Row | SMILES | IC50 (Aurora A) | IC50 (HCT 116 cells)
17 | CC(C)n1nc(Nc2cc(C3CC3)n[nH]2)c2ccc(N(C)C)cc2c1=O [Example F-9, 4-(5-Cyclopropyl-2H-pyrazol-3-ylamino)-7-dimethylamino-2-isopropyl-2H-phthalazin-1-one] | 1 to 100 nM | 100 to 10000 nM
18 | Cc1cc(Nc2nn(C(C)C)c(=O)c3cc(CO)ccc23)n[nH]1 [Example M-9, 7-Hydroxymethyl-2-isopropyl-4-(5-methyl-1H-pyrazol-3-ylamino)-2H-phthalazin-1-one] | 1 to 100 nM | 100 to 10000 nM
19 | Cc1cc(Nc2nn(-c3ccc(C(C)(C)C)cc3)c(=O)c3ccccc23)n[nH]1 [Example A-8, 2-(4-tert-Butyl-phenyl)-4-(5-methyl-1H-pyrazol-3-ylamino)-2H-phthalazin-1-one] | 100 to 1000 nM | 100 to 10000 nM
20 | Cc1cc(Nc2nn(Cc3ccc([N+](=O)[O-])cc3)c(=O)c3ccccc23)n[nH]1 [Example B-3, 4-(5-Methyl-1H-pyrazol-3-ylamino)-2-(4-nitro-benzyl)-2H-phthalazin-1-one] | 100 to 1000 nM | 100 to 10000 nM
21 | Cc1cc(Nc2nn(C(C)C)c(=O)c3cc(C(=O)N4CCOCC4)ccc23)n[nH]1 [Example M-2, 2-Isopropyl-4-(5-methyl-1H-pyrazol-3-ylamino)-7-(morpholine-4-carbonyl)-2H-phthalazin-1-one] | 1 to 100 nM | 100 to 10000 nM
22 | Cc1cc(Nc2nn(-c3ccc(Nc4ccccc4)cc3)c(=O)c3ccccc23)n[nH]1 [Example U-1, 4-(5-Methyl-1H-pyrazol-3-ylamino)-2-(4-phenylamino-phenyl)-2H-phthalazin-1-one] | 1 to 100 nM | 100 to 10000 nM
23 | CCC(C)c1ccc(-n2nc(Nc3cc(C)n[nH]3)c3ccccc3c2=O)cc1 (stereo not shown) [Example P-2, 2-(4-sec-Butyl-phenyl)-4-(5-methyl-2H-pyrazol-3-ylamino)-2H-phthalazin-1-one] | 1 to 100 nM | 10000 to 100000 nM
24 | Cc1cc(Nc2nn(CC(F)(F)F)c(=O)c3ccccc23)n[nH]1 [Example A-5, 4-(5-Methyl-1H-pyrazol-3-ylamino)-2-(2,2,2-trifluoro-ethyl)-2H-phthalazin-1-one] | 1 to 100 nM | 100 to 10000 nM
25 | COc1ccc2c(Nc3cc(C)[nH]n3)nn(C(C)C)c(=O)c2c1 [Example G-1, 2-Isopropyl-4-(5-methyl-1H-pyrazol-3-ylamino)-7-methoxy-2H-phthalazin-1-one] | 1 to 100 nM | 100 to 10000 nM
26 | Cc1cc(Nc2nn(-c3ccc(C(F)(F)F)cc3)c(=O)c3ccccc23)n[nH]1 [Example A-25, 4-(5-Methyl-1H-pyrazol-3-ylamino)-2-(4-trifluoromethyl-phenyl)-2H-phthalazin-1-one] | 1 to 100 nM | 100 to 10000 nM
27 | CNC(=O)Nc1ccc2c(Nc3cc(C)[nH]n3)nn(C(C)C)c(=O)c2c1 [Example I-13, 1-[3-Isopropyl-1-(5-methyl-1H-pyrazol-3-ylamino)-4-oxo-3,4-dihydro-phthalazin-6-yl]-3-methyl-urea] | 1 to 100 nM | 100 to 10000 nM
28 | Cc1cc(Nc2nn(C(C)C)c(=O)c3cc(CN4CCOCC4)ccc23)n[nH]1 [Example L-2, 2-Isopropyl-4-(5-methyl-1H-pyrazol-3-ylamino)-7-morpholin-4-ylmethyl-2H-phthalazin-1-one] | 1 to 100 nM | 100 to 10000 nM
29 | COc1cccc(C(=O)Cn2nc(Nc3cc(C)[nH]n3)c3ccccc3c2=O)c1 [Example E-5, 2-[2-(3-Methoxy-phenyl)-2-oxo-ethyl]-4-(5-methyl-1H-pyrazol-3-ylamino)-2H-phthalazin-1-one] | 1 to 100 nM | 100 to 10000 nM
30 | CC(=O)Nc1ccc(Cn2nc(Nc3cc(C)[nH]n3)c3ccccc3c2=O)cc1 [Example D-1, N-{4-[4-(5-Methyl-1H-pyrazol-3-ylamino)-1-oxo-1H-phthalazin-2-ylmethyl]-phenyl}-acetamide] | 1 to 100 nM | 4190 nM
31 | Cc1cc(Nc2nn(C(C)C)c(=O)c3cc(OCc4ccccn4)ccc23)n[nH]1 [Example G-2, 2-Isopropyl-4-(5-methyl-1H-pyrazol-3-ylamino)-7-(pyridin-2-ylmethoxy)-2H-phthalazin-1-one] | 1 to 100 nM | 100 to 10000 nM
32 | Cc1cc(Nc2nn(-c3ccc(NC(=O)C(C)(C)C)cc3)c(=O)c3ccccc23)n[nH]1 [Example T-3, 2,2-Dimethyl-N-{4-[4-(5-methyl-1H-pyrazol-3-ylamino)-1-oxo-1H-phthalazin-2-yl]-phenyl}-propionamide] | 100 to 1000 nM | 100 to 10000 nM
